Conditions: Liquid, Closed cell (Static) method

FCC(F)(F)F [1,1,1,2-tetrafluoroethane]
Conditions | vapor or sublimation pressure [kPa]
243.1 K | 84.23
248.08 K | 106.12
263.01 K | 199.39
283.03 K | 412.95
303.12 K | 769.5
328.05 K | 1488
352.93 K | 2620.8

C=C(F)C(F)(F)F [2,3,3,3-tetrafluoro-1-propene]
Conditions | vapor or sublimation pressure [kPa]
224.12 K | 38.9
228.21 K | 48.3
233.12 K | 62
234.21 K | 65.5
238.08 K | 78.7
243.03 K | 98.8
247.95 K | 121.7
252.91 K | 149.2
255.49 K | 165.3
257.7 K | 180.4
258.61 K | 186.9
263.14 K | 221.7
268.1 K | 265.1
272.98 K | 313.9
277.96 K | 370.5
283.09 K | 437.1
288.08 K | 509.4
292.87 K | 587.3
297.97 K | 679.4
303.12 K | 783.2
308.11 K | 894.6
313.09 K | 1018
315.59 K | 1083.5
318.08 K | 1153
320.61 K | 1224
323.11 K | 1301.1
325.58 K | 1380
333.06 K | 1638.3
338.05 K | 1831
343.02 K | 2039
348.01 K | 2265.6
352.98 K | 2511.5
357.97 K | 2778.2
362.94 K | 3067.1
365.93 K | 3218.4

Source: the NIST ThermoML archive (doi:10.1021/je900306v)
